From BindingDB's records for doi:10.1124/jpet.104.077321 (I.G.B.M.C., 2005)
Where a SMILES comes first, the peptide text is derived from it.

Molecular target: Delta-type opioid receptor (Homo sapiens, UniProt P41143)
Sequence (P41143 whole entry): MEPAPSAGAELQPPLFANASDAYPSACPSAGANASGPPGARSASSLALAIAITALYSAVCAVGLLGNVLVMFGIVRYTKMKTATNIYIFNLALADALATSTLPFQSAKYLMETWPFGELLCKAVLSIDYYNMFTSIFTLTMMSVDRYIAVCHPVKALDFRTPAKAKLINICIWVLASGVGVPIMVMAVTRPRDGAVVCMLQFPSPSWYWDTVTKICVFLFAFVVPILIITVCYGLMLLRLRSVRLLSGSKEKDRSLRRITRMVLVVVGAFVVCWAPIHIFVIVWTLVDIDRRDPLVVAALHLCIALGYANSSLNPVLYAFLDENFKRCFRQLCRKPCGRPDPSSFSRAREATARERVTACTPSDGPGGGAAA

Row | SMILES | Ki [nM]
1 | Cc1cc(O)cc(C)c1C[C@@H](C(=O)N1Cc2ccccc2C[C@H]1C(N)=O)N(C)C | 2.5
2 | Cc1cc(O)cc(C)c1C[C@H](N)C(=O)N1Cc2ccccc2C[C@H]1C(=O)O [(S)-2-((S)-2-amino-3-(4-hydroxy-2,6-dimethylphenyl)propanoyl)-1,2,3,4-tetrahydroisoquinoline-3-carboxylic acid] (HELM PEPTIDE1{[Cc1cc(O)cc(C)c1C[C@H](N)C(=O)[*:2]].[Tic]}$$$$V2.0) | 13.1
3 | Cc1cc(O)cc(C)c1C[C@H](N)C(=O)N1Cc2ccccc2C[C@H]1C(N)=O [H-Dmt-Tic-NH2] (HELM PEPTIDE1{[Cc1cc(O)cc(C)c1C[C@H](N)C(=O)[*:2]].[Tic].[am]}$$$$V2.0) | 9.41
4 | CCO[C@@]12Cc3c([nH]c4ccccc34)[C@]3(C)Oc4c(O)ccc5c4C31CCN(CC1CC1)C2C5 (stereo partly specified) [HS378] | 0.4
5 | C=CCN1CCC23c4c5ccc(O)c4OC2c2[nH]c4ccccc4c2C[C@@]3(OCC)C1C5 (stereo partly specified) [HS414] | 2.1
6 | CCO[C@@]12Cc3c([nH]c4ccccc34)C3Oc4c(O)ccc5c4C31CCN(CC1CC1)C2C5 (stereo partly specified) [HS464] | 0.11
7 | CCO[C@@]12Cc3c(oc4ccccc34)C3Oc4c(O)ccc5c4C31CCN(CC1CC1)C2C5 (stereo partly specified) [HS510A] | 0.12
8 | C=CCN1CCC23c4c5ccc(O)c4OC2c2c(c4ccccc4n2C)C[C@@]3(OC)C1C5 (stereo partly specified) [HS531] | 0.42
9 | COc1c(O)cc2c3c1O[C@@]1(C)c4oc5ccccc5c4C[C@@]4(O)C(C2)N(CC2CC2)CCC314 (stereo partly specified) [NSC_0] | 0.22
10 | C=CCN(CC=C)[C@@H](Cc1ccc(O)cc1)C(=O)NC(C)(C)C(=O)NC(C)(C)C(=O)N[C@@H](Cc1ccccc1)C(=O)N[C@@H](CC(C)C)C(=O)O [NSC_107691] (HELM PEPTIDE1{[C=CCN(CC=C)[C@@H](Cc1ccc(O)cc1)C(=O)[*:2]].[Aib].[Aib].F.L}$$$$V2.0) | 434
11 | N[C@@H](Cc1ccc(O)cc1)C(=O)N1Cc2ccccc2C[C@H]1C(=O)N[C@@H](Cc1ccccc1)C(=O)N[C@@H](Cc1ccccc1)C(=O)O [TIPP] (HELM PEPTIDE1{Y.[Tic].F.F}$$$$V2.0) | 2.9
